Reference: patent publication US11096985B2, “Antimicrobial peptides, their variants and uses” (priority 2015, dated 2021)
Where a SMILES comes first, the peptide text is derived from it. [ ]: non-standard residue; d: D form.

What was measured:
[1] = system: clinical strains of Escherichia coli; assay: MIC, clinical strains of E. coli; type: cell-based; parameters: unit: μg/ml; conditions: microdilution, Muller Hinton broth-cation adjusted, 0.02% BSA, 0.2% acetic acid
Summary of the method: (§1)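 MIC = lowest peptide concentration showing no visual growth after 20–24 h at 37° C. Range 0.125–128 μg/ml; bacteria at 5.0×10^5 cfu/ml in MH broth, polypropylene microdilution format; yeasts in potato dextrose broth.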

[2] = system: clinical strains of Klebsiella pneumoniae; assay: MIC, clinical strains of K. pneumoniae; type: cell-based; parameters: unit: μg/ml; conditions: microdilution, Muller Hinton broth-cation adjusted, 0.02% BSA, 0.2% acetic acid
Summary of the method: as §1

[3] = system: clinical strains of Pseudomonas aeruginosa; assay: MIC, clinical strains of P. aeruginosa; type: cell-based; parameters: unit: μg/ml; conditions: microdilution, Muller Hinton broth-cation adjusted, 0.02% BSA, 0.2% acetic acid
Summary of the method: as §1

[4] = system: clinical strains of Serratia marcescens; assay: MIC, clinical strains of Serratia marcescens; type: cell-based; parameters: unit: µg/mL; conditions: microdilution, Muller Hinton broth-cation adjusted, 0.02% BSA, 0.2% acetic acid
Summary of the method: as §1

[5] = system: clinical strains of Proteus mirabilis; assay: MIC, clinical strains of Proteus mirabilis; type: cell-based; parameters: unit: µg/mL; conditions: microdilution, Muller Hinton broth-cation adjusted, 0.02% BSA, 0.2% acetic acid
Summary of the method: as §1

[6] = system: clinical strains of Enterobacter cloacae; assay: MIC, clinical strains of Enterobacter cloacae; type: cell-based; parameters: unit: μg/ml; conditions: microdilution, Muller Hinton broth-cation adjusted, 0.02% BSA, 0.2% acetic acid
Summary of the method: as §1

[7] = system: clinical strains of Staphylococcus aureus; assay: MIC, clinical strains of S. aureus; type: cell-based; parameters: unit: μg/ml; conditions: microdilution, Muller Hinton broth-cation adjusted, 0.02% BSA, 0.2% acetic acid
Summary of the method: as §1

[8] = system: clinical strains of Streptococcus pneumoniae; assay: MIC, clinical strains of Streptococcus pneumoniae; type: cell-based; parameters: unit: µg/mL; conditions: microdilution, Muller Hinton broth-cation adjusted, 0.02% BSA, 0.2% acetic acid
Summary of the method: as §1

[9] = system: clinical strains of Acinetobacter baumannii; assay: MIC, clinical strains of Acinetobacter baumannii; type: cell-based; conditions: microdilution, Muller Hinton broth-cation adjusted, 0.02% BSA, 0.2% acetic acid
Protocol: Minimum inhibition concentrations (MICs) were determined against Escherichia coli (ATCC 25922), Staphylococcus aureus (ATCC 25923), Klebsiella pneumoniae (ATCC 10031) and Pseudomonas aeruginosa (ATCC 27853). Also clinical strains of E. coli, K. pneumoniae, E. cloacae, P. aeruginosa, Serratia marcescens, Proteus mirabilis, S. pneumoniae, Acinetobacter baumannii, A. johnsonii and S. aureus were used for MICs assays. Additionally, clinical strains of yeast including Candida albicans, C. glabrata, C. parapsilosis and C. quillermondiae were used. The susceptibility of these microorganisms to Chain peptides were determined using micro broth dilution assay. Colonies of the respective microorganism from Muller Hinton (MH) agar plates incubated overnight were suspended in MH broth media and final concentration of microorganism was adjusted to 5.0×10^5 cfu/ml. An aliquot of 10 μl of each Chain peptide, or gentamicin, tetracycline as reference antibiotics were added in differing concentrations along with 90 μl of bacterial suspension to 96 well polypropylene plates and incubated at 37° C. for 20 to 24 hours. Concentrations of Chain peptides and reference antibiotics ranged from 0.125 to 128 μg/ml and the MICs were recorded as the lowest concentration with no visual growth of bacteria. Similarly, antifungal MICs were tested in Potato dextrose broth.
Clinical strains of yeasts including Candida albicans, C. glabrata, C. parapsilosis and C. quillermondiae were also tested with the 12 Chain peptides. The minimum inhibitory concentration (MICs) varied between these peptides and are presented in Tables 4a, 4b, 4c and 5a, 5b, 5c. Peptides Chain 105, 201 and 308 are broad spectrum antimicrobials with MICs between 0.5-32 μg/ml against all the bacteria and yeasts tested, except Serratia marcescens and Proteus mirabilis, against which the MICs were between 64-128 μg/ml. Peptide Chain 306 has narrow spectrum activity against E.coli at 1 μg/ml and for the rest of the bacterial strains at >32 μg/ml (FIG. 10).

[10] = system: clinical strains of Candida albicans; assay: MIC, clinical yeast strains, Candida albicans; type: cell-based; parameters: unit: μg/ml
Summary of the method: as §1

[11] = system: clinical strains of C. glabrata; assay: MIC, clinical yeast strains, C. glabrata; type: cell-based, Candida glabrata; parameters: unit: μg/ml
Summary of the method: as §1

[12] = system: clinical strains of C. parapsilosis; assay: MIC, clinical yeast strains, C. parapsilosis; type: cell-based, Candida parapsilosis; parameters: unit: μg/ml
Summary of the method: as §1

[13] = system: clinical strains of C. quillermondiae; assay: MIC, clinical yeast strains, C. quillermondiae; type: cell-based; conditions: C. quillermondiae clinical yeast strain 1
Summary of the method: as §1

Structure (SMILES): CC[C@@H](C)[C@@H](NC(=O)[C@@H](CC(C)C)NC(=O)[C@@H](CCCNC(=N)N)NC(=O)[C@H](N)CCCNC(=N)N)C(=O)N[C@H](Cc1c[nH]c2ccccc12)C(=O)N[C@H](CCCNC(=N)N)C(=O)N[C@H](CCCNC(=N)N)C(=O)N[C@H](Cc1ccccc1)C(=O)N[C@H](CCCCN)C(=O)N[C@H](Cc1c[nH]c2ccccc12)C(=O)N[C@H](CC(C)C)C(=O)N[C@H](CCCNC(=N)N)C(=O)O [Chain204D] (H-[dR][dR][dL][dI][dW][dR][dR][dF][dK][dW][dL][dR]-OH)
- Minimum inhibitory concentration ([1]; Escherichia coli clinical strain 1): 8
- Minimum inhibitory concentration ([1]; Escherichia coli clinical strain 2): 1
- Minimum inhibitory concentration ([1]; Escherichia coli clinical strain 3): 1
- Minimum inhibitory concentration ([1]; Escherichia coli clinical strain 4): 1
- Minimum inhibitory concentration ([1]; Escherichia coli clinical strain 5): 1
- Minimum inhibitory concentration ([2]; Klebsiella pneumoniae clinical strain 1): 8
- Minimum inhibitory concentration ([2]; Klebsiella pneumoniae clinical strain 2): 4
- Minimum inhibitory concentration ([2]; Klebsiella pneumoniae clinical strain 3): 16
- Minimum inhibitory concentration ([2]; Klebsiella pneumoniae clinical strain 4): 4
- Minimum inhibitory concentration ([2]; Klebsiella pneumoniae clinical strain 5): 2
- Minimum inhibitory concentration ([3]; Pseudomonas aeruginosa clinical strain 1): 4
- Minimum inhibitory concentration ([3]; Pseudomonas aeruginosa clinical strain 2): 16
- Minimum inhibitory concentration ([3]; Pseudomonas aeruginosa clinical strain 3): 8
- Minimum inhibitory concentration ([3]; Pseudomonas aeruginosa clinical strain 4): 8
- Minimum inhibitory concentration ([3]; Pseudomonas aeruginosa clinical strain 5): 4
- Minimum inhibitory concentration ([4]; Serratia marcescens clinical strain 1): >128
- Minimum inhibitory concentration ([4]; Serratia marcescens clinical strain 2): >128
- Minimum inhibitory concentration ([4]; Serratia marcescens clinical strain 3): 128
- Minimum inhibitory concentration ([4]; Serratia marcescens clinical strain 4): >128
- Minimum inhibitory concentration ([4]; Serratia marcescens clinical strain 5): >128
- Minimum inhibitory concentration ([5]; Proteus mirabilis clinical strain 1): >128
- Minimum inhibitory concentration ([5]; Proteus mirabilis clinical strain 2): 32
- Minimum inhibitory concentration ([5]; Proteus mirabilis clinical strain 3): 64
- Minimum inhibitory concentration ([5]; Proteus mirabilis clinical strain 4): >128
- Minimum inhibitory concentration ([5]; Proteus mirabilis clinical strain 5): >128
- Minimum inhibitory concentration ([6]; Enterobacter cloacae clinical strain 1): 4
- Minimum inhibitory concentration ([6]; Enterobacter cloacae clinical strain 2): 8
- Minimum inhibitory concentration ([6]; Enterobacter cloacae clinical strain 3): 4
- Minimum inhibitory concentration ([6]; Enterobacter cloacae clinical strain 4): 8
- Minimum inhibitory concentration ([6]; Enterobacter cloacae clinical strain 5): 2
- Minimum inhibitory concentration ([7]; Staphylococcus aureus clinical strain 1): 1
- Minimum inhibitory concentration ([7]; Staphylococcus aureus clinical strain 2): 2
- Minimum inhibitory concentration ([7]; Staphylococcus aureus clinical strain 3): 2
- Minimum inhibitory concentration ([7]; Staphylococcus aureus clinical strain 4): 1
- Minimum inhibitory concentration ([7]; Staphylococcus aureus clinical strain 5): 1
- Minimum inhibitory concentration ([8]; Streptococcus pneumoniae clinical strain 1): 4
- Minimum inhibitory concentration ([8]; Streptococcus pneumoniae clinical strain 2): 4
- Minimum inhibitory concentration ([8]; Streptococcus pneumoniae clinical strain 3): 4
- Minimum inhibitory concentration ([8]; Streptococcus pneumoniae clinical strain 4): 4
- Minimum inhibitory concentration ([8]; Streptococcus pneumoniae clinical strain 5): 4
- Minimum inhibitory concentration ([9]; Acinetobacter baumannii clinical strain 1): 4
- Minimum inhibitory concentration ([9]; Acinetobacter baumannii clinical strain 2): 4
- Minimum inhibitory concentration ([9]; Acinetobacter baumannii clinical strain 3): 4
- Minimum inhibitory concentration ([9]; Acinetobacter baumannii clinical strain 4): 4
- Minimum inhibitory concentration ([9]; Acinetobacter baumannii clinical strain 5): 4
- Minimum inhibitory concentration ([10]; Candida albicans clinical yeast strain 1): 8
- Minimum inhibitory concentration ([10]; Candida albicans clinical yeast strain 2): 8
- Minimum inhibitory concentration ([10]; Candida albicans clinical yeast strain 3): 8
- Minimum inhibitory concentration ([10]; Candida albicans clinical yeast strain 4): 8
- Minimum inhibitory concentration ([10]; Candida albicans clinical yeast strain 5): 8
- Minimum inhibitory concentration ([11]; C. glabrata clinical yeast strain 1): 4
- Minimum inhibitory concentration ([11]; C. glabrata clinical yeast strain 2): 8
- Minimum inhibitory concentration ([11]; C. glabrata clinical yeast strain 3): 32
- Minimum inhibitory concentration ([11]; C. glabrata clinical yeast strain 4): 32
- Minimum inhibitory concentration ([12]; C. parapsilosis clinical yeast strain 1): 4
- Minimum inhibitory concentration ([12]; C. parapsilosis clinical yeast strain 2): 4
- Minimum inhibitory concentration ([12]; C. parapsilosis clinical yeast strain 3): 8
- Minimum inhibitory concentration ([12]; C. parapsilosis clinical yeast strain 4): 8
- Minimum inhibitory concentration [13]: 4
